Columns and labels:
[1] = Cytotoxicity assay (MTS), GS4.1 cells; assay type: cell-based, human; conditions: human, 3 days (NS4A-ELISA Assay)
Protocol: The cytotoxicity assay measures the viability of cells after treatment with a test compound for 3 days in either GS4.1 cells or Zluc cells. […] The cytotoxicity assay is summarized as follows. Ninety-six-well tissue culture plates were seeded with GS4.1 or Zluc cells. Antiviral compound solutions were made up freshly in medium as 2×-concentrated stocks. Eight additional 3-fold drug dilutions were prepared from these stocks in medium for a total of 9 dilutions. At least four hours after the cells were seeded, drug treatment was initiated by adding one volume of each 2×-concentrated drug dilution to one volume of cells/medium in the tissue culture plates. Cells were then incubated for 3 days at 37° C./5% CO2. After 3 days of treatment, the CellTiter 96® Aqueous One Solution cell proliferation assay (Promega) was performed by adding the MTS solution to each well. The plates were then incubated at 37° C./5% CO2 for 3.5 hours. Plates were then read in a Victor^3V 1420 multilabel counter (Perkin Elmer) and CC50 concentrations were determined using Microsoft Excel and XLfit 4.1 software.

CYP3A4 = CYP3A4 (Homo sapiens, UniProt P08684); assay: Effect of CYP3A4 inhibitors (ketoconazole, ritonavir) on metabolic stability in human liver microsomes; assay type: in vitro ADME; conditions: human microsomes 1 mg/mL, 60 min, 10 μM, NADPH
Protocol: Incubations were conducted in a final volume of 0.1 mL per incubation time point. […] Final solvent (DMSO or methanol) concentration was maintained at 0.2%. Reactions were initiated by the addition of an NADPH regenerating system (1.3 mM NADP^+, 3.3 mM glucose-6-phosphate, 0.4 U/ml glucose-6-phosphate dehydrogenase, and 3.3 mM MgCl2, final concentrations). Incubations with no inhibitor served as control. Reactions were terminated at 30 min (monkey) or 60 min (rat and human) by the addition of 0.2 mL of stop solution (acetonitrile). The samples were vortex-mixed for 30 sec and then centrifuged at 10,000×g for 10 min. The supernatant was dried using a Labconco CentriVap concentrator and the dry residue reconstituted in water, transferred to an HPLC glass vial and analyzed by HPLC-UV method 1 (described above).
Because Compound 1 is rapidly metabolized in monkey liver microsomes, incubation conditions were adjusted by reducing protein content to 0.5 mg/mL and incubation time to 30 min. Incubation conditions for rat and human were unchanged; protein was 1 mg/mL and incubation time was 60 min.

CYP2C8 = CYP2C8 (Homo sapiens, UniProt P10632); assay: Incubation with human recombinant CYP450 supersomes, 2C8; assay type: in vitro ADME; conditions: CYP450 2C8 supersomes, 60 min, 10 μM, average of two experiments
Protocol: Supersomes—Incubations were conducted in a final volume of 0.1 mL reaction buffer (50-100 mM potassium phosphate, pH 7.4 or 100 mM Tris-HCL, pH 7.4) according to protocol provided with each CYP450 supersome. Each reaction contained […] of CYP450 supersome, 1.3 mM NADP^+, 3.3 mM glucose-6-phosphate, 0.4 U/mL glucose-6-phosphate dehydrogenase, 3.3 mM MgCl2 and 10 μM Compound 1. Following incubation for 60 min at 37° C., 100 μL of stop solution (acetonitrile:methanol; 1:1) was added and samples centrifuged for 10 min at 10,000×g. The supernatant was then dried and reconstituted in 10 mM potassium phosphate, pH 5, further transferred to an HPLC glass vial and analyzed by HPLC-UV (described above).

[2] = Radiochemical purity of the test article in dose formulations before and after dosing; assay type: physicochemical; conditions: PEG 200 with 5% DMSO
Protocol: Two dose formulations (50 mg/mL for the IV dose Groups 1A-C and 100 mg/mL for the PO dose Groups 2A-C) were prepared in PEG 200 containing 5% DMSO. Subsamples of the dose formulations were removed before and after the dose administration. An aliquot (10 μL) of each subsample was diluted by adding methanol (490 μL) and 20 mM ammonium formate in water (1500 μL). The diluted dose formulations were analyzed for determination of radiochemical purity by HPLC method 1.
Two dose formulations (50 mg/kg for the IV dose Groups 1A-C and 100 mg/kg for the PO dose Groups 2A-C) were prepared by the following procedure. Both formulations were prepared in PEG 200 containing 5% DMSO. The required amount of radioactive material was weighed and ground to a fine powder with a spatula. 30% of the final volume of PEG 200 and the weighed test article was added to a formulation vial while stirring under magnetic agitation to obtain a uniform formulation. The final volume was made up with PEG 200. The formulation was sonicated at room temperature for 15 minutes or longer to obtain homogenous suspension. The cycles of sonication/agitation were continued until the formulation was homogeneous. Triplicate aliquots were removed for determination of homogeneity (CV). The radioactivity concentration of the formulation was determined and specific activity was calculated.
The dose aliquots were analyzed by HPLC method 1 after diluting 10 μL of each formulation with 490 μL of methanol and 1.5 mL of the aqueous mobile phase.

[3] = Metabolite profile in rat plasma; assay type: in vivo, male Sprague-Dawley rats; conditions: rat terminal plasma, IV (2, 6, 24 h) and PO (6 h)
Protocol: Pooled terminal rat plasma samples were prepared for Group 1A, Group 1C, and Groups 2A-C. The pools were prepared by combining 1 mL of plasma from each of the four animals. Subsamples (2 mL each) of the pooled samples were transferred to 15-mL conical centrifuge tubes for extraction. To each subsample, 6 mL of methanol were added and each mixture was vortexed vigorously and then centrifuged at 5700×g for 15 minutes. The supernatant (extract 1) was transferred to a 15-mL tube. The pellets were further extracted with methanol (2 mL). Each sample was vortexed thoroughly to ensure mixing. The samples were centrifuged as described above. The supernatant (extract 2) was removed. The total volume of each extract was recorded. […] All extracts and reconstituted extracts were analyzed by LSC. Reconstituted extracts containing sufficient radioactivity were analyzed by HPLC.
Terminal plasma samples were pooled, extracted and prepared for HPLC analysis as described above. For Group 1, terminal plasma samples (2, 6, and 24 h) were pooled and analyzed by HPLC as described above. For Group 2, only the 6-h sample had sufficient radioactivity for analysis. […]

Sequence of CYP3A4 (P08684 whole entry): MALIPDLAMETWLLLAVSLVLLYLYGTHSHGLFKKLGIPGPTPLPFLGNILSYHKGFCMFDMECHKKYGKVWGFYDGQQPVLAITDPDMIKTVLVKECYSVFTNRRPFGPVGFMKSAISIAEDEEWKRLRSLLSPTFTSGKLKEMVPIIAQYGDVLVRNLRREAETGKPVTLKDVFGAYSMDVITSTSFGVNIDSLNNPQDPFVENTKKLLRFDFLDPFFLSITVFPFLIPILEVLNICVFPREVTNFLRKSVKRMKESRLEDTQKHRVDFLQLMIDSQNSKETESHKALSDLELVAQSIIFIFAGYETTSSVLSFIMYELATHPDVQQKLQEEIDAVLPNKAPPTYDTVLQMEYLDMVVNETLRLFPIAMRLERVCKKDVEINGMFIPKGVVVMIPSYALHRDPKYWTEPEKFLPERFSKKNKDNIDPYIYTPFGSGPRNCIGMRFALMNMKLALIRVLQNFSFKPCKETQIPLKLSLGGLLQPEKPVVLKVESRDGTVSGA
Sequence of CYP2C8 (P10632 whole entry): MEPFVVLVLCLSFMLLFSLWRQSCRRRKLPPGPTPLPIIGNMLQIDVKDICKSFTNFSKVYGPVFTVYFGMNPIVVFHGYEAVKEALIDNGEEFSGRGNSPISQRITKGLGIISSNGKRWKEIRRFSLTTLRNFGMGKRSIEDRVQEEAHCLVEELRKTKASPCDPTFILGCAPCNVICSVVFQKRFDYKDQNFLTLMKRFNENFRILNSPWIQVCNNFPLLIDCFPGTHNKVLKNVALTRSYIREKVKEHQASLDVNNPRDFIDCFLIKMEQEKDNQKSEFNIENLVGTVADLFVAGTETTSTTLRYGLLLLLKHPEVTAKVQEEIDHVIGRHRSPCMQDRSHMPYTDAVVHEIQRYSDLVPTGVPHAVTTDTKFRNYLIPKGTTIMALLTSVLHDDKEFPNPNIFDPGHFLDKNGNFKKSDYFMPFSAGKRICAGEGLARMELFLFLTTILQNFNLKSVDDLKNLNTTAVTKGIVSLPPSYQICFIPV

In the case of `CC(C)(CO)C(=O)SCCOP(=O)(NCc1ccccc1)OC[C@H]1O[C@@H](n2cnc3c(=O)[nH]c(N)nc32)[C@](C)(O)[C@@H]1O` (mixture of isomers) [Compound 1, 3-hydroxy-2,2-dimethyl-thiopropionic acid S-(2-{[(2R,3R,4R,5R)-5-(2-amino-6-oxo-1,6-dihydro-purin-9-yl)-3,4-dihydroxy-4-methyl-tetrahydro-furan-2-ylmethoxy]-benzylamino-phosphoryloxy}-ethyl) ester], the CC50 at 3 days [1] is reported as greater than 100 µM, the “% Residual Compound 1” value (CYP3A4; Ketoconazole 0.1 μM) is reported as 103% and the “% Residual Compound 1” value (CYP3A4; Ketoconazole 1 μM) is reported as 117%. For the same compound, the “% Residual Compound 1” value (CYP3A4; Ritonavir 0.1 μM) was 92%, the “% Residual Compound 1” value (CYP3A4; Ritonavir 1 μM) was 117% and the “% Residual Compound 1” value (CYP3A4; inhibitor 0 μM) was 65%. For the same compound, the “% Residual Compound 1” value (CYP2C8) was 105%, the “Radiochemical Purity of the test article in dose formulation (total of two isomers)” value (“Radiochemical Purity of the test article” for short) ([2]; IV formulation, Groups 1A-C, Postdose) was 99.1% and the “Radiochemical Purity of the test article” value ([2]; IV formulation, Groups 1A-C, Predose) was 99.0%. The “Radiochemical Purity of the test article” value ([2]; PO formulation, Groups 2A-C, Postdose) was 98.9% and the “Radiochemical Purity of the test article” value ([2]; PO formulation, Groups 2A-C, Predose) was 98.6%.
For `C[C@@]1(O)[C@H](O)[C@@H](CO)O[C@H]1n1cnc2c(=O)[nH]c(N)nc21` [2′-C-methyl guanosine, 9-(2-C-methyl-β-D-ribofuranosyl)guanine, reference compound], the Plasma metabolites detected [3] was “only detectable metabolite”.

Source: patent US20100003217A1, “Compounds and Pharmaceutical Compositions for the Treatment of Viral Infections” (priority 2008, published 2010)
